Data reported in patent US7674813B2, “Heterocyclic sulfonamide inhibitors of beta amyloid production containing an azole” (Wyeth, priority 2004, dated 2010).
pEC50: −log10 of the molar value.

Key:
[1] = tested on: amyloid precursor protein (APP) proteolysis; experiment: Repressor Release Assay (RRA); format: cell-based; design: key to RRA data (footnote symbols): **: Inactive due to toxicity; however, this compound, at 3-4 μM, reduces Aβ levels by 50% in CHO cells transfected with human APP695 as measured by ELISA without exhibiting toxicity.; ***: Inactive; however, this compound, at 1-4 μM, reduces Aβ levels by 50% in CHO cells transfected with human APP695 as measured by ELISA without exhibiting toxicity; conditions: for fold induction at 20 µg/mL: Cricetulus griseus, CHO-K1, all compounds tested at 20 μg/mL, luciferase activity over diluent control, read-out: RRA data (Fold increase of APPI)
Procedure: The beta amyloid inhibitory activity of many of the compounds of the present invention has been determined using the Repressor Release Assay (RRA). See, Table 3 below. A compound is considered active in RRA if it leads to at least a 1.5 fold increase in luciferase activity at 20 μg/mL and is non-toxic.
The compound is considered active in RRA if it leads to at least a 1.5 fold increase in APPI as measured by an increase in luciferase activity at 20 μg/mL and is non-toxic. Shuey, D. J., Sheiffele, P., Jones, D., Cockett, M. I., and Quinet, E. M. (1999) Repressor release: a useful tool for monitoring amyloid precursor protein (APP) proteolysis in mammalian cells. Society for Neuroscience Abstracts, Vol. 25, 29th Annual Meeting of Society for Neuroscience, Miami Beach, Fla., Oct. 23-28, 1999.
CHO—K1 cells are cultured in whole DMEM media (DMEM—High Glucose with 10% fetal bovine serum, 1% Non-essential Amino Acids, and 1% Penicillin-Streptomycin) at 37° C. with 5% CO2. Two million cells are plated into 10-cm dishes 24 hrs prior to transfection.
Transient transfections are completed as recommended by Gibco BRL using their Lipofectamine Plus system. First, 6 μg of pRSVO-luc and 6 μg of APP-lacI construct DNA are added to 460 μL Opti-Mem transfection media and incubated with 30 μL Plus reagent for 15 minutes. Then, a lipid mixture of 40 μL Lipofectamine reagent and 460 μL Opti-Mem transfection media is incubated with the DNA-Plus reagent mixture for 15 minutes. During the DNA-lipid incubation, the CHO—K1 cells are washed once and covered in 5.0 mL DMEM media without Penicillin-Streptomycin. The DNA-lipid preparation is then layered onto these cells and incubated at 37° C. overnight.
One and one half million transfected cells per well (100 μL total volume) are plated into sterile, opaque Packard 96-well Cultur-Plates in clear DMEM whole media (DMEM—without phenol red) and incubated at 37° C. with 5% CO2 for 3-5 hours.
Compounds are diluted using two different protocols; one protocol is used for compounds supplied neat (weighed powder in vial) and the other protocol is used for compounds supplied in solution (20 mM in DMSO in 96-well plates). For both protocols, 25 mM Hepes and 25 mM Hepes/1% DMSO are prepared fresh to be used as diluent. The Hepes/DMSO is used as the diluent control on all experimental plates.
The following Table 1 depicts the steps for compound dilution (the last step is the addition of compound to cells/media in tissue culture plate):
Because some compounds arrive in 96-well format at 20 mM, the following Table 2 represents the protocol for their dilution (an average molecular weight of these compounds was used to calculate these dilutions and as above, the last step is the addition of compound to cells/media in tissue culture plate):
Once compounds are diluted, they are applied in duplicate on cells in tissue culture plates (prepared above). Cells are incubated with compound at 37° C. with 5% CO2 for an additional 36-48 hours.
Luciferase assays (LucLite reagent, Packard) are performed and are read on a Packard TopCount instrument. Media is removed from each 96-well plate and replaced with 100 μL PBS per well (with Mg^2+ and Ca^2+). An equal volume (100 μL) of the LucLite lysis/substrate buffer is added to each well and the plates are sealed and mixed in the dark on a rotary shaker for 15-30 minutes at room temperature. Luciferase readings are then taken on the TopCount instrument. Measurements are expressed as relative light units (RLU) and are calculated and analyzed in MS Excel as follows:
Fold Increase: amount of luciferase activity (measured in relative light units) over diluent control.
SEM: standard error of the mean for fold increase.
Activity: A compound is considered active if it results in at least a 1.5 fold increase in luciferase activity at 20 μg/mL.
Toxicity: determined by loss of signal (<0.75 fold increase).

[2] = tested on: beta amyloid protein; conditions: in vivo after oral administration; cited from earlier work
[3] = tested on: beta amyloid 42; experiment: Aβ40/42 ELISA Assay (Aβ42); format: cell-based; conditions: CHO cells carrying the APP-REP-NL plasmid, 22 hours, sandwich ELISA; for pEC50: Cricetulus griseus
In short: (§1)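 Test compounds at 2 μM and below are applied for 22 h to CHO cells stably carrying APP-REP-NL. Secreted Aβ40 or Aβ42 in conditioned medium is measured by sandwich ELISA against synthetic peptide standards, using 6E10 capture with C-terminus-specific anti-Aβ40 or anti-Aβ42 detection. Toxicity is checked by MTS read-out; EC50 reported.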

[4] = tested on: beta amyloid 40; experiment: Aβ40/42 ELISA Assay (Aβ40); format: cell-based; conditions: Cricetulus griseus; CHO cells carrying the APP-REP-NL plasmid, 22 hours, sandwich ELISA
In short: as §1

Compound | melting point [°C] | pEC50 [3] | pEC50 [4] | fold increase in luciferase activity ([1]; at 20 μg/mL) | beta amyloid protein levels in mice brains [2] | fold induction at 20 µg/mL ([1]; transfected CHO-K1 cells) | RRA data (footnote symbols) ([1]; tested at 20 μg/mL, transfected CHO-K1 cells) | Effect on Aβ42 production [3]
C[C@H](NC(=O)Cc1cc(F)cc(F)c1)C(=O)N[C@H](C(=O)OC(C)(C)C)c1ccccc1 [DAPT, reference compound] |  |  |  | 18.5-28.1 fold increase | reduce beta amyloid protein levels |  |  | 
CCC(CC)C(NS(=O)(=O)c1ccc(Cl)s1)c1ccnn1Cc1ccc(O)cc1 (stereo not drawn) [Example 8, 5-Chloro-N-{2-ethyl-1-[1-(4-hydroxybenzyl)-1H-pyrazol-5-yl]butyl}thiophene-2-sulfonamide] | 90 to 92 |  |  |  |  | 4.5 |  | 
CC(NS(=O)(=O)c1ccc(Cl)s1)c1ncnn1Cc1ccccc1 (stereo not drawn) [Example 25, N-[1-(1-Benzyl-1H-1,2,4-triazol-5-yl)ethyl]-5-chlorothiophene-2-sulfonamide] | 123 to 124 | 4.05 | 4.37 |  |  | 6.6 |  | 
Cc1ccc(Cn2ncnc2C(C)NS(=O)(=O)c2ccc(Cl)s2)cc1 (stereo not drawn) [Example 26, 5-Chloro-N-{1-[1-(4-methylbenzyl)-1H-1,2,4-triazol-5-yl]ethyl}thiophene-2-sulfonamide] | 116 to 117 | 4.81 | 5.02 |  |  | 5.6 |  | 
CC(C)C(NS(=O)(=O)c1ccc(Cl)s1)c1cccn1Cc1ccccc1 (stereo not drawn) [Example 31, N-[1-(1-Benzyl-1H-pyrrol-2-yl)-2-methylpropyl]-5-chlorothiophene-2-sulfonamide] | 102 to 103 |  | 4.57 |  |  | 5.3 |  | increase

Continued, in another order:

melting point [°C] | pEC50 [3] | pEC50 [4] | Compound | fold increase in luciferase activity ([1]; at 20 μg/mL) | beta amyloid protein levels in mice brains [2] | fold induction at 20 µg/mL ([1]; transfected CHO-K1 cells) | RRA data (footnote symbols) ([1]; tested at 20 μg/mL, transfected CHO-K1 cells) | Effect on Aβ42 production [3]
146 to 148 | 5.35 | 5.52 | CCC(CC)C(NS(=O)(=O)c1ccc(Cl)s1)c1ccnn1S(=O)(=O)c1ccc(C)cc1 (stereo not drawn) [Example 9, 5-Chloro-N-(2-ethyl-1-{1-[(4-methylphenyl)sulfonyl]-1H-pyrazol-5-yl}butyl)thiophene-2-sulfonamide] |  |  |  | *** | 
136 to 137 | 5.51 | 5.85 | CCC(CC)C(NS(=O)(=O)c1ccc(Cl)s1)c1ncnn1Cc1ccc(OC)cc1 (stereo not drawn) [Example 21, 5-Chloro-N-{2-ethyl-1-[1-(4-methoxybenzyl)-1H-1,2,4-triazol-5-yl]butyl}thiophene-2-sulfonamide] |  |  | 10.8 |  | 
138 to 139 | 4.88 | 5.28 | CC(C)C(NS(=O)(=O)c1ccc(Cl)s1)c1ncnn1Cc1ccccc1 (stereo not drawn) [Example 23, N-[1-(1-Benzyl-1H-1,2,4-triazol-5-yl)-2-methylpropyl]-5-chlorothiophene-2-sulfonamide] |  |  | 1.8 |  | 
124 to 125 | 4.96 | 5.22 | Cc1ccc(Cn2ncnc2C(NS(=O)(=O)c2ccc(Cl)s2)C(C)C)cc1 (stereo not drawn) [Example 24, 5-Chloro-N-{2-methyl-1-[1-(4-methylbenzyl)-1H-1,2,4-triazol-5-yl]propyl}thiophene-2-sulfonamide] |  |  | 1.8 |  | 
103 to 104 | 5.21 | 5.57 | CCC(CC)C(NS(=O)(=O)c1ccc(Cl)s1)c1ncnn1Cc1ccc(C)cc1 (stereo not drawn) [Example 27, 5-Chloro-N-{2-ethyl-1-[1-(4-methylbenzyl)-1H-1,2,4-triazol-5-yl]butyl}thiophene-2-sulfonamide] |  |  | 13 |  | 
